Experiments:
[1] = Oxidation of mixtures of LA and D2-LA in chlorobenzene; format: physicochemical
Description: FIG. 8. Dependence of the rate of oxidation of the mixture of LA and D2-LA in chlorobenzene solution on mixture composition. Conditions: [LA]+[11,11-d2-LA]=0.775 M; [AMVN]=0.0217 M; 37° C. RIN=(1.10±0.08)×10^−7 M/sec.
To simulate the likely in vivo conditions, the kinetics of the oxidation of the mixtures of D2-LA and LA were studied (FIG. 8). In the experiments, the concentration of LA plus 11,11-d2-LA was 0.775 M; the concentration of AMVN was 0.0217 M; and the reactions were carried out at 37° C. The results afforded an RIN of 1.10±0.08×10^−7 M/sec.

Q-less coq3 yeast = assay: Yeast incubated with different ratios of H- and D-PUFA, plate dilution; format: cell-based, S. cerevisiae; conditions: 200 μM total LA and D2-LA at different ratios
Description: FIG. 9. […] Wild-type, yeast Q-less coq3, or respiratory deficient cor1 null mutants were incubated in the presence of 200 μM of LA and D2-LA at different ratios of PUFAs. Serial dilutions (1:5) starting at 0.2 OD/ml were spotted on YPD solid plate medium. A zero-time untreated control is shown on the top left. Growth at 30° C.
FIG. 10. […] Serial dilutions (1:5) starting at 0.2 OD/ml were spotted on YPD solid plate medium. Growth at 30° C.
Wild-type, yeast Q-less coq3, or respiratory deficient cor1 null mutants were incubated in the presence of 200 μM of LA and D2-LA at different ratios of PUFAs, as indicated in FIG. 9. Serial dilutions (1:5) starting at 0.2 OD/ml were spotted on YPD solid plate medium. […] Growth was at 30° C.
Serial dilutions (1:5) starting at 0.2 OD/ml were spotted on YPD solid plate medium. Growth was at 30° C.

Wild-type yeast cells = assay: C11-Bodipy 581/591 lipid peroxidation in copper-stressed yeast; format: cell-based, S. cerevisiae; conditions: 200 μM fatty acid 2 hours, then 50 μM CuSO4 60 min
Description: Wild-type yeast cells were treated as described above except the yeast were treated with 200 μM of the designated fatty acid for 2 hours, washed with sterile water, and were either not treated (triangles) or treated with 50 μM CuSO4 (squares) at room temperature. After 60 min of copper treatment cells were treated with 8 μM C11-Bodipy 581/591 for 30 min at room temperature. Four 100 μl aliquots were plated in a 96-well plate and the fluorescence was measured.

NASH (MCD diet) rats = assay: NASH induced by methionine and choline deficient diet; format: in vivo, Rattus norvegicus, Wistar; conditions: daily over three months
Description: (§1) Fifty male heterozygous rats, 45-days-old, from the Rattus norvegicus species and Wistar lineage are kept in polypropylene cages, in groups of five animals, under a 12 h-clear/dark cycle and under controlled temperature conditions. The induction of NASH is carried out through a diet deficient in methionine and choline (MCD) according to known procedures (See Rogers A E, Newberne P M. Alcoholic and nutritional fatty liver and cirrhosis. Am J Pathol. 1973; 73:817-20). […] During the study period, the animals are weighed on a weekly basis and the drugs dose is readjusted as necessary. On the first day of the study, besides determining the animals' weight, their blood is collected through retro-orbital plexus puncture for biochemical analysis: alanine-aminotransferase (ALT) and aspartate-aminotransferase (AST) (colorimetric test, using the Labtest kit). One day after concluding the induction period and compound administration (90 days), animals are sacrificed by decapitation. Once more, each animal's blood is collected for biochemical analysis. Then, laparotomy with total hepatectomy and liver preparation are carried out for lipoperoxidation (LPO) and histological analysis. Liver tissue samples are analyzed using the thiobarbituric-acid reactant substance (TBARS) measurement according to known methods (See Lowry et al. Protein measurement with the folin phenol reagent. J Biol Chem. 1951; 193:265-75) and the results are expressed in nmol of malondialdehyde/mg of protein. Slides with liver fragments are also dyed with hematoxilin-eosine and picrosirius, in order to evaluate the fibrosis level, and with Perls to evaluate the presence of iron stores, having been examined by an only pathologist blinded to the animals' data. The minimum histological criterion for NASH diagnosis is the presence of hepatocellular ballooning-related steatosis, involving zone 3 and lobular inflammatory infiltrate. Mallory corpuscles and sinusoidal fibrosis, involving zone 3 might be present or not. The graduation of both necroinflammatory and fibrosis activity is carried out according to known classifications (See Brunt E M, Janney C G, Di Bisceglie A M, Neuschwander-Tetri B A, Bacon B R. Nonalcoholic steatohepatitis: a proposal for grading and staging the histological lesions. Am J Gastroenterol. 1999; 94:2467-74).

[2] = system: alcoholic liver disease rats; assay: Alcoholic liver disease and cirrhosis induced by 5% ethanol diet; format: in vivo, Rattus norvegicus, Wistar; conditions: 5% ethanol diet rats, daily over three months
Description: as §1, with “alcoholic liver disease and cirrhosis” for “NASH”, “containing 5% ethanol […].” for “deficient in methionine and choline (MCD) according to known procedures (See Rogers A E, Newberne P M. Alcoholic and nutritional fatty liver and cirrhosis. Am J Pathol. 1973; 73:817-20).”, “days), the” for “days),”, “data.” for “data. The minimum histological criterion for NASH diagnosis is the presence of hepatocellular ballooning-related steatosis, involving zone 3 and lobular inflammatory infiltrate. Mallory corpuscles and sinusoidal fibrosis, involving zone 3 might be present or not. The graduation of both necroinflammatory and fibrosis activity is carried out according to known classifications (See Brunt E M, Janney C G, Di Bisceglie A M, Neuschwander-Tetri B A, Bacon B R. Nonalcoholic steatohepatitis: a proposal for grading and staging the histological lesions. Am J Gastroenterol. 1999; 94:2467-74).”

rat hearts = assay: Langendorf isolated heart perfusion model, echo- and electrocardiography; format: in vivo; conditions: rats, 8 weeks supplementation
Description: Test compounds disclosed herein can also be assessed using the Langendorf isolated heart perfusion model. […] Following the treatment period, rat hearts are analyzed by echocardiography for measurement of muscle thickness of the left ventricle, left atrium, right ventricle, and right atrium and electrocardiography for measuring electrical activity. After live evaluation, rats are humanely sacrificed and their hearts isolated and connected to the Langendorf isolated perfusion system (See Jennings et al., Am. Surg. 2004; 70(9), 797-800). Left ventricular pressure is then measured with a left ventricular balloon. Coronary flow is also measured. Cardiac function is further assessed by determining the effect of administration of test compounds on the rate of contraction and relaxation of the heart. To determine whether any observed effects on cardiac function are due to the effect of the test compound on mitochondrial function, mitochondrial activity pre-ischemia and post-ischemia is assessed for each of the treatment groups.

## [2H]C([2H])(/C=C\CCCCC)/C=C\CCCCCCCC(=O)O [D2-LA, 11,11-Dideutero-cis,cis-9,12-Octadecadienoic acid]
[1]; data not shown
  effect during oxidation of mixture with non-deuterated methyl linoleate: qualitatively similar effect
[1]; mixtures of D2-LA and LA
  effect on autoxidation of non-deuterated LA in mixture: ‘protects’ the non-deuterated LA against autoxidation
Q-less coq3 yeast
  sufficiently minimal amount to cancel the toxicity of LA: 10-15%
Wild-type yeast cells
  levels of lipid peroxidation (C11-Bodipy fluorescence): lower levels of lipid peroxidation similar to yeast not treated with PUFA
NASH (MCD diet) rats
  amount of MDA in liver samples (TBARS): reduce the amount of MDA found in liver samples
  histological signs of NASH: reverse the histological signs of NASH
[2]
  amount of MDA in liver samples (TBARS): reduce the amount of MDA found in liver samples
  histological signs of fatty liver disease: reverse the histological signs of fatty liver disease
Rat hearts
  symptoms and markers associated with cardiac disorders: reduce symptoms and markers associated with cardiac disorders
